melting point [°C]	Structure (SMILES)
112 to 114	Cc1oc(-c2ccccc2)nc1CCCc1ccc(CC(C(=O)O)c2cccnc2)cc1 (centres undefined)
147 to 150	COc1cc2ncc(C#N)c(Nc3cccc(NC(C)=O)c3)c2cc1OC
197 to 200	CCOc1cc(CF)nc2nc(S(=O)(=O)Nc3c(Cl)ccc(C)c3Cl)nn12
75 to 76.5	CCC(C)COc1ccc(-c2ccc(O)cc2)cc1Br (centres undefined)
281	O=C1c2ccc(NC(=O)C3CCCC3)cc2C(=O)c2cc(NC(=O)C3CCCC3)ccc21
135	CC(C)NC(=S)n1ccc2cc(Cl)ccc21
214 to 215	CC(C)(C)OC(=O)NC1CCC(=O)NC1=O (centres undefined)
196 to 197	CC(C)(C)OC(=O)CN(C(=O)CNC(=O)Nc1ccc(Cl)cc1)c1ccccc1C(=O)c1ccccc1
261 to 262	CCCOc1ccccc1-c1nc2nc(N)ncc2c(=O)[nH]1
120 to 121	CCc1c(-c2ccc(O)cc2)c2c(COCCCCCN3CCCCC3)cc3c(O)ccc1n32
111 to 113	CCC(=O)NCC=C1CCc2ccc3nc(CCCCc4ccccc4)oc3c21
96 to 97	CCOC(=O)n1nc2c(c1N)CN(C(=O)N[C@H](CN(C)C)c1ccccc1)C2(C)C
283 to 291	CCCn1cc2c(C3C(=O)Nc4ccc(Br)cc43)nc(NCCc3ccccn3)nc2n1 (centres undefined)
55	COc1cc(C=O)cc(OC)c1C(C)(C)O
155 to 157	COC1C=C(C)C(=O)CC(C)(C)C1OC(=O)c1ccc2nc[nH]c2c1 (centres undefined)
45 to 46	Cc1nc(NC(=O)CCCc2ccccc2)sc1C(=O)NCc1ccccc1
119 to 121	Cc1ccc2c(c1)c1c(n2C(=O)c2ccccc2)CCCC1C(=O)OCc1ccccc1 (centres undefined)
204 to 206	Cc1sc(NS(=O)(=O)c2ccc(-c3ccccc3)cc2)nc1CC(=O)N1CCOCC1
188 to 190	Cn1c(=O)[nH]c(=O)c2c1ncn2Cc1noc(Cc2ccccc2)n1
117 to 118	CN(C(=O)c1ccc(Cl)cc1)c1ccccc1CCCC(C(=O)O)C(=O)O
109	CCCCOc1cc(/C=C(\OCC)C(=O)O)ccc1OCCc1ccc(OCC)c(Cl)c1
178 to 179	CN(C)C(=O)Nc1snc(S(C)=O)c1C#N (centres undefined)
107 to 109	CC(C)c1cccc(C(C)C)c1NC(=O)CN1CC2(CCCCC2)N(c2ccccc2)C1=O

melting point [°C]	Structure (SMILES)
216 to 218	Nc1ccc2c(c1)C(=O)N(C1CCN(Cc3ccccc3)CC1)C2=O
211	O=C1CCC(c2ccccc2)(c2ccccc2)[C@@H]2CN(C(=O)CC3=CSCSC3)C[C@H]12 (racemic)
178	CCOc1cc2c(cc1S(=O)(=O)NC(=S)NC)C(CNC(=O)N1CC(C)=C(CC)C1=O)CCO2 (centres undefined)
182 to 183	CC12CCCC1C1CC=C3CC(O)CC(O)C3(C)C1CC2 (centres undefined)
> 260	O=c1ccc(-c2c(-c3ccccc3)nn3ccccc23)nn1CC1(O)CCNCC1
173 to 174	O=C(Cc1ccccc1)N[C@H](Cc1ccc(C(F)(F)F)cc1)[C@@H](O)c1ccc(F)cc1 (racemic)
134 to 135	C=CCOC(=O)C1=C(C)NC(C)=C(C(=O)OCC)C1c1ccc(OC)c(OC)c1OC (centres undefined)
92 to 105	Cc1cccc(C(CNc2ncnc3c2ncn3C2OC(CO)C(O)C2O)c2ccccc2)c1 (centres undefined)
180 to 181	O=C(Cc1ccccc1)Nc1ccc2oc3c(c2c1)CCCC3
128	O=C1c2cccc(NC(=S)Nc3cnccn3)c2C2CC3(CCN12)SCCS3 (centres undefined)
118	CN(C)C(CN1CCN(c2ccc(F)cc2)CC1)CN1c2cccc3cccc(c23)S1(=O)=O (centres undefined)
150 to 152	Cc1ncsc1CCSc1ccnc(CSc2nc3ccccc3[nH]2)c1C
232 to 233	COc1oc(-c2ccc(NS(=O)(=O)c3sc4ccc(F)cc4c3C)c(S(C)(=O)=O)c2)nc1C
180	O=C1NC(=Cc2cccc(Cl)c2Cl)C(=O)C1=NO
185 to 188	COc1cc(OC(C)C)ccc1-c1nc(-c2ccc(OC(C)C)cc2O)nc(-c2ccc(OC(C)C)cc2O)n1
120 to 121	C=CCOC1(C(F)(F)F)CN(C2CC2)C(=O)Nc2ccc(Cl)cc21 (centres undefined)
203	CS(=O)(=O)OC1CCN(c2ccc(N)cc2)C1 (centres undefined)
189 to 190	NC(=O)N(O)CCNC(=O)c1ccc2ccccc2n1
219 to 220	O=C1COc2ccc3ccccc3c2N1
60	COc1ccc2nccc(CCC[C@@H]3CCN(CCCc4cccs4)C[C@@H]3C(=O)O)c2c1
162 to 163	Cc1ccc(C(=O)NCCO)cc1-n1c(C)cc(OCc2ccccc2CNC(=O)Nc2cc(C(C)(C)C)nn2-c2cccc(OCCO)c2)c(Cl)c1=O
98 to 100	CCCc1c(OCCCCc2nc3ccc(C(=O)O)cc3[nH]2)ccc(C(C)=O)c1O
177 to 182	CCCc1cc(Cl)c2oc(C(=O)c3ccc(Cl)cc3)c(C)c2c1OC(=O)c1ccc(Cl)cc1

melting point [°C]	Structure (SMILES)
80 to 81	COCN1C(C)=C(C(=O)OC)C(c2ccccc2)C(C(=O)OCOC(=O)C(C)(C)C)=C1C (single isomer, unassigned; (+))
264 to 266	CCOCc1nc2c(N)nc3cc(OCc4ccccc4)ccc3c2n1CC(C)(C)NS(C)(=O)=O
84 to 85	CC1(C)CC(=O)Oc2cc(O)ccc21
190 to 193	CC(=Cc1ccc2c(c1)S(=O)(=O)c1cc(C=C(C)c3ccccc3)ccc1N2C)c1ccccc1
130 to 132	CCC(CC)c1cccc2[nH]c(=O)n(C)c12
203 to 204	CCn1ncc2c(-c3cncc(C)c3)c(C(=O)NCc3ccc(OC)cc3)c(-c3ccccc3)nc21
156 to 157	O=C1CCCc2nc3ccccc3c(NCc3cccc(F)c3)c21
159	Cc1ccc2nc(Cl)c(C#N)c(Cl)c2c1
202	O=C1C2=C(SCCO2)C(O)N1c1ccc(Cl)cn1 (centres undefined)
168	CCOC(=O)c1nc(C(=O)Oc2ccccc2)sc1N
184 to 185	CCCCC[N+]([O-])=[N+]([O-])CC
230 to 233	CC(C)Oc1cccc(-n2c(NC(=O)Nc3ccc(Br)cc3)nc3ccccc3c2=O)c1
97 to 100	CC(C(=O)NCC(COC(=O)C(C)(C)C)Cc1ccc(C(C)(C)C)cc1)c1ccc(NS(C)(=O)=O)cc1 (centres undefined)
142 to 143	Cc1cccc(C)c1CNc1cc(C(=O)N(C)C)cc2c1nc(C)n2C
111 to 114	Fc1ccc(C(c2ccc(OCc3ccccc3)cc2)C(c2ccccc2)C(F)(F)F)cc1 (centres undefined)
129 to 131	CCOC(=O)C1C(c2ccco2)C(C(=O)OCC)C(O)(C(F)(F)F)NC1(O)C(F)(F)F (centres undefined)
98 to 100	CCOC(=O)c1cc(=O)c2c(OCC(O)COc3ccc(Cl)cc3)cccc2o1 (centres undefined)
169 to 170	CCN1c2ncc(COc3ccncc3)cc2C(=O)N(C)c2ccc(Cl)nc21
174 to 176	COC(=O)Cn1cc2c(c1C)-c1ccc(Cl)cc1C(c1ccccc1Cl)=NC2
145 to 147	C=CCOc1ccc2c(=O)c(C)c(-c3ccccc3)oc2c1C(=O)C=Cc1ccccc1
210 to 212	Cc1cc(NC(=O)NCc2ccc3c(c2)CN(C2CCC(=O)NC2=O)C3=O)ccc1O (centres undefined)
100 to 102	CCOC(=O)C[C@H](NC(=O)/C=C/Sc1ccccc1)C(=O)OCC
218 to 222	CNC(=O)NS(=O)(=O)c1ccccc1OCCCl

melting point [°C]	Structure (SMILES)
53 to 55	CC(C)C(=O)c1c(C(C)C)nn2ccccc12
209	Cn1cc(C(=O)NCc2ccc(Cl)cc2)c(=O)c2cc(COCC(=O)c3ccccc3)sc21
62 to 64	COc1nnc(-c2ccccc2)cc1C
152 to 154	Cc1c2ccccc2c(O[Si](C)(C)C(C)(C)C)c2occ(CCC=O)c12
64 to 65	CCCCCCCCCCCCCCCCC[C@@H](C[C@@H]1OC(=O)[C@H]1CCCCCC)OC(=O)[C@H](CC(C)C)NC=O
105 to 107	CCCc1nn(-c2ccc(C(F)(F)F)cn2)cc1CCCCOc1ccc(CCC(=O)O)c(C)c1
50 to 52	COC(=O)CC1(OCc2ccccc2)C=CC=C(c2ccccc2)C1 (centres undefined)
92 to 93	CCSC1=N[C@@H](c2ccc(OC)cc2)[C@@H](c2ccc(OC)cc2)N1
72 to 73	O=[N+]([O-])c1ccc(Oc2ccc([N+](=O)[O-])cc2-c2ccc(C(F)(F)F)cc2C(F)(F)F)c(-c2ccc(C(F)(F)F)cc2C(F)(F)F)c1
219 to 222	C=CCOC(=O)c1ccc(O)c(C23CC4CC(CC(C4)C2)C3)c1F
180	CCC(ON=c1c2nccc3cccc(c32)n2cccc12)C(=O)O (centres undefined)
192	CCC(=O)N[C@H]1CC[C@H](CCN2CCC(c3cccc4c3CCO4)CC2)CC1
208 to 209	O=c1ccc2ccc(OCCCCN3CCN(c4cccc5cc(Cl)ccc45)CC3)nc2[nH]1
88 to 90	COc1cc(NC(=O)CCCCCN2CCN(CCO)CC2)c2nccc(C)c2c1
115 to 116	Brc1ccc2c3c(cccc13)C(NCCCCCCCCCCn1ccnc1)=N2
222 to 225	O=C(O)c1ccc(-c2coc3ccccc23)cc1
254	CC(c1ccc2[nH]c(-c3cccnc3)nc2c1)n1ccnc1 (centres undefined)
90 to 92	C=CC(=O)NCc1cc(C)c(OCC2CO2)c(C)c1 (centres undefined)
86 to 87	CCC(=O)c1ccc2c(Cc3ccccc3)c(CC)oc2c1
240 to 242	CCOC(=O)c1nc(-c2ccc([N+](=O)[O-])cc2)[nH]c1-c1ccc(N(C)C)cc1
169	CNC(=O)N(O)Cc1ccc(-c2ccccc2)s1

Structure (SMILES)	melting point [°C]
CN1CCN(Cc2ccc(N)cc2C(F)(F)F)CC1	119 to 121
COc1cccc(-c2ccc3c(c2)c(C(=O)C(=O)O)cn3Cc2ccc(C(C)(C)C)cc2)c1	86 to 87
CN1C(=O)C(C(=O)Nc2ccc(Oc3nnc(C(C)(C)C)o3)cc2)C(=O)N(C)C1=O	200 to 203
COc1ccc2c(c1)C13CCN(C#N)C(C2)C1CCC(=O)C3 (centres undefined)	211 to 214

From a melting point compilation (Tetko et al.; mined from patent text by program, amines drawn as free bases though some values may be those of a salt)
